“And” between values parts separate entries of the source, which are not always exact repeats. Equal entries are not always repeated.
Experiments:
[1] = tested on: inward rectifier potassium (IK1) current; assay: Whole-cell patch-clamp, steady state current-voltage relation in dog ventricular myocytes; assay type: cell-based; settings: 10 µM, dog left ventricular myocytes
Source text: (§1) The effects of SZV-2649 on transmemrane ionic currents were investigated in dog cardiac myocytes after a 5-minute superfusion of the drug.
Figure 4D represents the steady state current-voltage relation after 300 ms pulses from − 100 mV to 60 mV using 10 mV increments applying 3-second pulsing cycle length from the holding potential of -90 mV.
(§2) Ventricular myocytes from Beagle dogs were enzymatically dissociated as described in detail previously. A single droplet of cell suspension was placed in a transparent recording chamber mounted on the stage of an inverted microscope (Olympus IX51, Olympus, Tokyo, Japan), and individual myocytes were allowed to settle and adhere to the chamber bottom for at least 5–10 min before superfusion was initiated and maintained by gravity. Only rod-shaped cells with clear striations were used. […]
(§3) The membrane currents were recorded with Axopatch-200B amplifiers (Molecular Devices, Sunnyvale, CA, USA) by means of the whole-cell configuration of the patch-clamp technique. […]
The inward rectifier (IK1), the transient outward (Ito), the rapid (IKr) and the slow (IKs) delayed rectifier potassium currents were recorded in HEPES-buffered Tyrode’s solution. […] When IKr was recorded, IKs was inhibited by using the selective IKs blocker HMR-1556 (0.5 µM). […]

anesthetized dogs = assay: Atrial fibrillation induced by carbachol infusion and burst stimulation in anesthetized dogs; assay type: in vivo, dog; parameters: key to AF converted to SR? / AF reinduced?: N, response not observed; Y, response observed
Description: The effect of SZV-2649 was further investigated in carbachol-infused and programmed electrical stimulation-induced (i.e. 800/min atrial burst stimulation) acute atrial fibillation model in anesthetized dogs.
In the atrial fibrillation experiments, at least 5–6 dogs for control and test groups, (respectively) were used. Following 0.5 µg/kg sufentanyl premedication and […] i.v. pentobarbital anaesthesia induction, left thoracotomy was performed on all animals. Dogs were endotracheally intubated and mechanically ventilated (UGO Basile respirator; Biological Research Apparatus, Italy) Physiological parameters (non-invasive blood pressure, SpO2, ECG) were continuously monitored during surgery and experiments (InnoCare-VET Patient Care Monitor; Budapest, Hungary). The ECGs were recorded using precordial leads and were digitized and stored on a computer for off-line analysis using National Instruments data acquisition hardware (National Instruments, Austin, Texas, USA) and SPEL Advanced Haemosys software (version 3.2, MDE Heidelberg GmbH, Germany). Under pentobarbital anaesthesia, two pacemaker electrodes (Biotronik Solia S 60; Biotronik Ltd., Hungary) were positioned epicardially into the left atrial appendage and apex of the left ventricle, respectively, and electrodes were connected to pacemakers (Effecta D; Biotronik Hungary Ltd., Hungary). Pacemakers were programmed in VVI mode using Biotronik IC: 4808 A-Renamic programmer to prevent the potentially bradycardic effect of carbachol leading to hemodynamic instability. Atrial and ventricular thresholds were measured before AF induction in all animals. Ventricular and atrial pacing were set to three times the measured threshold. AF inducibility were tested in both groups using a control set (25 times) of 10-second-long rapid atrial bursts (800 beats/min, at threefold threshold). Following 25 atrial burst stimuli, 2 × 2 µg/kg loading dose of intravenous carbachol was administered followed by an 8 µg/kg/h maintenance dose. Atrial fibrillation was induced using 10-second-long atrial burst stimuli in the presence of carbachol in both groups of dogs. […] In these experiments, we investigated whether AF was converted to SR by the test drug(s). All intravenous infusions were performed using a programmable infusion pump (Terufusion TE-3; Terumo Europe, Leuven, Belgium).

[2] = tested on: late sodium current (INaL); assay: Whole-cell patch-clamp, late sodium current in dog ventricular myocytes; assay type: cell-based; settings: 10 µM, dog left ventricular myocytes
Description: as §1
The late sodium current (INaL) was investigated by application of 2-second-long test pulses to -20 mV from the holding potential of -120 mV with the pulsing cycle length of 5 s. In the internal (pipette) solution, KCl was replaced by 125 mM CsCl to block potassium currents and the external solution contained 1 µM nisoldipine, 0.5 µM HMR-1556 and 0.1 µM dofetilide in order to block ICaL, IKs and IKr currents, respectively.
as §2, §3

[3] = i.v. 10 mg/kg, individual dogs, carbachol + burst, 10 mg/kg

SMILES: CC(N)COc1c(I)cc(C#N)cc1I.Cl (stereo not drawn) [SZV-2649, 4-(2-aminopropoxy)-3,5-diiodobenzonitrile hydrochloride]
- Effect on inward rectifier potassium (IK1) current, steady state current-voltage relation [1]: no discernible effects
- AF converted to SR? (anesthetized dogs; i.v. 10 mg/kg, individual dogs, carbachol + burst): Y
- AF converted to SR? (time printed in cell) (anesthetized dogs; [3]): 79 s and 175 s and 64 s and 286 s and 84 s and 194 s
- AF reinduced (number of the 25 burst stimuli) (anesthetized dogs; [3]): 0/25 and 1/25 and 2/25
- AF reinduced? (anesthetized dogs; [3]): N and Y (2×)
- Atrial fibrillation reinduced, share of burst stimuli (anesthetized dogs; i.v. 10 mg/kg, whole group): 2%
- Times atrial fibrillation was reinduced by the 25 burst stimuli delivered in each animal (anesthetized dogs; i.v. 10 mg/kg, whole group): 3 times
- Experimental animals in which atrial fibrillation was converted to sinus rhythm (anesthetized dogs; intravenous bolus 10 mg/kg): 100%
- Effect on magnitude of INaL [2]: significantly decreased
